What was measured:
souris [1] = assay: Motility reduced by habituation to the enclosure; format: in vivo; settings: dès la dose de 2 mg/kg
Method: Après 18 heures de séjour dans les actimè-tres, les souris (6 par dose, 12 témoins) reçoivent le composé CRL 41 334. Elles sont aussitôt replacées dans leurs enceintes respectives et, une demi-heure plus tard, on enregistre leur motilité pendant 30 minutes.
Après 18 heures de séjour dans les actimètres, les souris (6 par dose, 12 émoins) reçoivent le CRL 41 055. Elles sontaussitôt replacées dans leurs enceintes respectives et, une demi-heure plus tard, on enregistre leur motilité pendant 30 minutes.

rat [2] = assay: Global behaviour and reactivities, rat, i.p.; format: in vivo
Method: Le composé CRL 41 334, en suspension dans une solution de gomme arabique, a été administré par voie intrapéritonéale sous un volume de 20 ml/kg chez la souris (mâle, NMRI, C.E.R. Janvier) et de 5 ml/kg chez le rat (mâle, CD₁; SPRAGUE DAWLEY, Charles River).
Des lots de 3 animaux sont observés avant, puis 15 mn, 30 mn, 1h, 2h, 3h et 24 heures après l'administration du composé CRL 41 334.
Le CRL 40 956, en suspension dans une solution de gomme arabique a été administré par voie intrapéritonéale sous un volume de 20 ml/kg chez la souris (mâle, NMRI, Evic Céba) et de 5 ml/kg chez le rat (mâle, CD₁, Sprague Dawley, Charles River).
Des lots de 3 animaux sont observés avant, puis 15 mn, 30 mn, 1 h, 2 h, 3 h et 24 heures après l'administration de CRL 40 956.

souris [3] = assay: Interaction with reserpine, mouse; format: in vivo
Method: Quatre heures après l'injection intrapéritonéale de 2,5 mg/kg de réserpine, des lots de 12 souris reçoivent le composé CRL 41 334. • 1 - Action sur la température • 2 - Action sur le ptosis

rat [4] = assay: Interaction with apomorphine, rat; format: in vivo; settings: 16 et 64 mg/kg, apomorphine 0,5 mg/kg s.c.
Method: Le composé CRL 41 334 est administré à des lots de 6 rats une demi-heure avant l'injection sous-cutanée de 0,5 mg/kg d'apomorphine.
Le CRL 40 956 est administré à des lots de 6 rats une demi-heure avant l'injection sous cutanée de 0,5 mg/kg d'apomorphine.

homme = assay: Therapeutic use in humans; format: in vivo; settings: homme, voie orale, 4 fois 50 mg par jour
souris [5] = assay: Interaction with oxotremorine, mouse; format: in vivo; settings: oxotrémorine 0,5 mg/kg i.p.
Method: Le composé CRL 41 334 est administré à des lots de 6 souris une demi-heure avant l'injection intrapéritonéale de 0,5 mg/kg d'oxotrémorine.

Solubility in water = format: physicochemical; settings: water
From the text: Le composé est une poudre blanche, insoluble dans l'éther de pétrole, soluble dans l'éther, l'acé-tate d'éthyle et les alcools. Sa solubilité dans l'eau est inférieure à 0,1%.

souris [6] = assay: Traction test; format: in vivo; settings: half an hour after administration
From the text: Le test est pratiqué sur des lots de 10 souris, une demi-heure après l'administration du composé CRL 41 334.

souris [7] = assay: Interaction with apomorphine, mouse; format: in vivo
Method: Des lots de 6 souris reçoivent le composé CRL 41 334 une demi-heure avant l'injection sous-cutanée d'apomorphine, à la dose de 1 ou 16 mg/kg. • a) Apomorphine 1 mg/kg • b) Apomorphine 16 mg/kg

souris [8] = assay: Asphyxic anoxia (gallamine triethiodide); format: in vivo; settings: 128 mg/kg, triiodoéthylate de gallamine 32 mg/kg i.p.
Method: Des lots de 20 souris reçoivent le composé CRL 41 334 une demi-heure avant l'administration intrapéritonéale de 32 mg/kg de triiodoéthylate de gallamine.
Des lots de 10 souris reçoivent le CRL 40 956 une demi-heure avant l'administration intrapé-ritonéale de 32 mg/kg de triodoéthylate de Gallamine.

souris [9] = assay: Motility reduced by hypoxic aggression; format: in vivo
Method: Une demi-heure après avoir reçu le composé CRL 41 334, les souris (10 par dose, 20 témoins) sont soumises à une anoxie hypobare aigüe (dépression de 60 mmHg en 90 secondes, détente de 45 secondes), puis elles sont placées en actimètre où leur motilité est enregistrèe pendant 10 minutes.

souris [10] = assay: Interaction with barbital; format: in vivo; settings: souris, 8, 32 et 128mg/kg, barbital 220 mg/kg i.p.
Method: Une demi-heure après l'administration du composé CRL 41 334, des lots de 20 souris reçoivent une injection intrapéritonéale de barbital ([…]).
Une demi-heure après l'administration du CRL 40 956 des lots de 10 souris reçoivent une injection intrapéritonéale de 200 mg/kg de barbital.

rat [11] = assay: Interaction with amphetamine, rat; format: in vivo; settings: rat, 16, mais surtout 64 mg/kg, amphétamine 2 mg/kg i.p.
Method: L'amphétamine (2 mg/kg) est injectée par Voie intrapéritonéale à des lots de 6 rats, une demi-heure après l'administration du composé CRL 41 334.

souris [12] = assay: Intergroup aggressiveness; format: in vivo; settings: 32 et 128 mg/kg
Method: Après avoir séjourné pendant 3 semaines dans chacune des moitiés d'une cage séparées par une cloison opaque, des groupes de 3 souris reçoivent le composé CRL 41 334. Une demi-heure plus tard, les deux groupes d'une même cage sont réunis par retrait de la cloison et on note le nombre de combats qui surviennent en 10 minutes. Le test est pratiqué pour moitié sur les souris habituelles (NMRI, C.E.R. Janvier) et pour moitié sur des souris NMRI (Iffa Credo).
Après avoir séjourné pendant 3 semaines dans chacune des moitiés d'une cage séparée par une cloison opaque, des groupes de 3 souris reçoivent le CRL 40 956. Une demi-heure plus tard, les deux groupes d'une même cage sont réunis par retrait de la cloison et on note le nombre de combats qui surviennent en 10 minutes.

[13] = souris, 128 mg/kg, réserpine 2,5 mg/kg i.p.

NC(=O)CSC(c1ccc(F)cc1)c1ccc(F)cc1 [CRL 41 334, 2-(4,4ʹ-difluorobenzhydrylthio)acétamide]
activité motrice chez la souris habituée à son enceinte (souris [1]): reprise nette de l'activité motrice | comportement et réactivités (rat [2]; rat, 64 mg/kg i.p.): sédation pendant 15 minutes | diamètre pupillaire (rat [2]; rat, 64 mg/kg i.p., à 1 heure): mydriase très modérée et brève | comportement, réactivités, variation du diamètre pupillaire et de la température rectale (rat [2]; rat, 1, 4 et 16 mg/kg i.p.): comparables à ceux du lot témoin | hypothermie réserpinique (souris [3]; [13]): aggrave modérément l'hypothermie réserpinique | ptosis (souris [3]; [13]): n'est pas modi-fié | hypothermie et ptosis réserpiniques (souris [3]; souris, 8, 32 ou 128 mg/kg, au temps 24 heures): semble s'opposer à l'hypothermie et au ptosis réserpiniques | stéréotypies induites par l'apomorphine (rat [4]): potentialise | traitement des dépressions des brûlés (homme): bons résultats | Action sur la température (souris [5]; 128 mg/kg): aggrave l'hypothermie induite par l'oxotrémorine | Action sur les symptômes chlolinergiques périphériques (souris [5]; 128 mg/kg): diminue la défécation sans modifier la salivation et la lacrymation | Action sur les tremblements (souris [5]): ne sont pas modifiés | solubility (Solubility in water): < 1000 µg/mL | incapacité motrice (souris [6]): ne provoque pas d'incapacité motrice majeure | hypothermie induite par l'apomorphine (souris [7]; 128 mg/kg, apomorphine 1 mg/kg s.c.): aggrave l'hypothermie induite par l'apomorphine | température (souris [7]; 128 mg/kg, compound alone): entraîne une hypothermie | comportements de verticalisation et de stéréotypies (souris [7]; apomorphine 1 ou 16 mg/kg s.c.): NE SONT PAS MODIFIES | délai d'apparition de la mort (souris [8]): augmente le délai d'apparition de la mort | délai d'apparition des convulsions (souris [8]): n'est pas modifié | récupération motrice après anoxie hypobare (souris [9]; 32 et 128 mg/kg): amélioration est importante | récupération motrice après anoxie hypobare (souris [9]; dès la dose de 2mg/kg): amélioration de la récupération | durée du sommeil barbiturique (souris [10]): diminution importante de la durée du sommeil barbiturique | stéréotypies amphétaminiques (rat [11]): potentialise les stéréotypies amphétaminiques | nombre de combats (souris [12]): diminue le nombre de combats

— patent publication EP0258134A1, “Therapeutical compositions containing benzhydryl thiomethane derivatives” (LABORATOIRE L. LAFON, priority 1986, dated 1988)
